Measurements as given in patent US9493396B2, “Substituted naphthalene compounds as calcium sensing receptor modulators” (LUPIN ATLANTIS HOLDINGS SA, priority 2013, dated 2016).
Structures can show the parent of a compound that is named as a salt.

Target: T1, Calcium sensing receptor (hCaSR) (Homo sapiens, UniProt P41180)
T1 construct: expressed in transfected cells; host or cells: HEK293 (stably transfected)
T1 sequence (P41180 20-1078): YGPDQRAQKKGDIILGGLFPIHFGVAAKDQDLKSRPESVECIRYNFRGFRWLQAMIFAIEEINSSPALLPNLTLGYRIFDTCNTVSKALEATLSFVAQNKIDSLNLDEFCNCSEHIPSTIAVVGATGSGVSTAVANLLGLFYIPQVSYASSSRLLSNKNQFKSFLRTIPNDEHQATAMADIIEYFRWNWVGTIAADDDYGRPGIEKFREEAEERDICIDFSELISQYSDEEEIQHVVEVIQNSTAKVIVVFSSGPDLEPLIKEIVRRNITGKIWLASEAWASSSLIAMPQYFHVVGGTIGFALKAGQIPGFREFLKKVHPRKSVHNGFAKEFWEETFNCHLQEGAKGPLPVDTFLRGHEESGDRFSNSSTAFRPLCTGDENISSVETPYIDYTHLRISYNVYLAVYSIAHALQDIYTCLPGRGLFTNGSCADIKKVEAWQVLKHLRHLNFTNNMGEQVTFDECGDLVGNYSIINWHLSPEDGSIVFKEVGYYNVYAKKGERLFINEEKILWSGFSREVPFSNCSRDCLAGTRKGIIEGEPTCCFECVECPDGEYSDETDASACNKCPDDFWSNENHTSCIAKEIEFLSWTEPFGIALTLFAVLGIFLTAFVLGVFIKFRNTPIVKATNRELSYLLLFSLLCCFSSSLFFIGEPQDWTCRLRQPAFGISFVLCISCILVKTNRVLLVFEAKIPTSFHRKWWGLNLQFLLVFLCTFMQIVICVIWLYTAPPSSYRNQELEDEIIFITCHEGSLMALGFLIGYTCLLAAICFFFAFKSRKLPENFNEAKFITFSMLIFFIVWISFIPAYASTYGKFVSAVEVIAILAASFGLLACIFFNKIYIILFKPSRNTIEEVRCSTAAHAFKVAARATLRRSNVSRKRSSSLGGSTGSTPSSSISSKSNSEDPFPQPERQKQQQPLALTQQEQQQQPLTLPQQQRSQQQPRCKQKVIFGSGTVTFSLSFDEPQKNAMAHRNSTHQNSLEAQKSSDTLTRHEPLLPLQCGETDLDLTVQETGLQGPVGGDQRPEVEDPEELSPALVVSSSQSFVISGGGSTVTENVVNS
Test: In-vitro assay of calcimimetics through modulation of calcium sensing receptor (intracellular calcium increase, FLIPR)
Assay type: cell-based
Conditions: stably transfected HEK293 cells expressing hCaSR; Fluo4NW dye; 0.3 mM CaCl2; 8-point assay; read-out: EC50 in range
Method: In-Vitro Assay Method of Calcimimetics Through Modulation of Calcium Sensing Receptor (CaSR): The ability of the compounds to modulate Calcium sensing receptor is determined by measuring an increase in intracellular calcium [Ca^2+]i. Stably transfected HEK293 cells expressing hCaSR_pTriEx-3 hygro vector are developed. Cells are grown overnight on a 96-well plate to 80% confluency in Ham's F12 containing 20% FBS at 37° C., 5% CO2. Subsequently, cells are washed extensively with 20 mM HEPES buffer containing 126 mM […], 1 mM MgCl2 and 4 mM KCl to remove serum components that might interfere with the assay. Cells are loaded with calcium sensing Fluo4NW dye in HEPES base buffer containing 0.1% BSA and 1 mg/ml glucose for 30 minutes to measure changes in intracellular calcium. The activities of the compounds are measured in FLIPR using 0.3 mM CaCl2 in 20 mM HEPES base buffer. The effectiveness of the compound to modulate receptor activity is determined by calculating the EC50 responses for that compound in an 8-point assay and plotted using GraphPad Prism 5.

| Structure (SMILES) | EC50 [nM] |
| --- | --- |
| CC(N[C@H](C)c1cccc(Cl)c1)c1cc(-c2ccc(C(F)(F)F)c(CCC(=O)O)c2)c2ccccc2c1 (stereo partly drawn) [Example 146, 3-(5-(3-(1-(((R)-1-(3-Chlorophenyl)ethyl)amino)ethyl)naphthalen-1-yl)-2-(trifluoromethyl)phenyl)propanoic acid hydrochloride] | 50 to 400 |
| CCC(N[C@H](C)c1cccc(OC)c1)c1cc(-c2ccc(C)c(C(=O)O)c2)c2ccccc2c1 (stereo partly drawn) [Example 149, 5-(3-(1-(((R)-1-(3-Methoxyphenyl)ethyl)amino)propyl)naphthalen-1-yl)-2-methylbenzoic acid hydrochloride] | 50 to 400 |
| COc1cccc([C@@H](C)NC(C)c2cc(-c3cccc(CCC(=O)O)c3F)c3ccccc3c2)c1 (stereo partly drawn) [Example 129, 3-(2-Fluoro-3-(3-(1-(((R)-1-(3-methoxyphenyl)ethyl)amino)ethyl)naphthalen-1-yl)phenyl)propanoic acid hydrochloride] | < 20 |
| COc1cc([C@@H](C)NC(C)c2cc(-c3ccc(C(F)(F)F)cc3)c3ccccc3c2)ccc1F (mixture of isomers) [Example 11, (1R)-1-(4-Fluoro-3-methoxyphenyl)-N-(1-(4-(4-(trifluoromethyl)phenyl)naphthalen-2-yl)ethyl)ethanamine hydrochloride] | < 20 |
| COc1cccc([C@@H](C)NC(C)c2cc(-c3ccc(C(F)(F)F)cc3)c3ccccc3c2)c1 (stereo partly drawn) [Example 6, (R)-1-(3-Methoxyphenyl)-N-(1-(4-(4-(trifluoromethyl)phenyl)naphthalen-2-yl)ethyl)ethanamine hydrochloride] | < 20 |
| COc1cccc([C@@H](C)NC(C)c2cc(-c3ccc(C(F)(F)C(=O)O)cc3)c3ccccc3c2)c1 (stereo partly drawn) [Example 135, 2,2-Difluoro-2-(4-(3-(1-(((R)-1-(3-methoxyphenyl)ethyl)amino)ethyl)naphthalen-1-yl)phenyl) acetic acid hydrochloride] | < 20 |
| CC(N[C@H](C)c1cccc(F)c1)c1cc(-c2ccc(C(F)(F)F)cc2)c2ccccc2c1 (stereo partly drawn) [Example 13, (1R)-1-(3-Fluorophenyl)-N-(1-(4-(4-(trifluoromethyl)phenyl)naphthalen-2-yl)ethyl)ethanamine hydrochloride] | < 20 |
| COc1cccc([C@@H](C)NC(C)c2cc(-c3ccc(C(=O)O)cc3F)c3ccccc3c2)c1 (stereo partly drawn) [Example 120, 3-Fluoro-4-(3-(1-(((R)-1-(3-methoxyphenyl)ethyl)amino)ethyl)naphthalen-1-yl)benzoic acid hydrochloride] | < 20 |
| COc1cc([C@@H](C)NCc2cc(-c3ccc(C)c(C(=O)O)c3)c3ccccc3c2)ccc1F [Example 93, (R)-5-(3-(((1-(4-Fluoro-3-methoxyphenyl)ethyl)amino)methyl)naphthalen-1-yl)-2-methylbenzoic acid hydrochloride] | 50 to 400 |
| COc1cccc([C@@H](C)NCCCc2cc(-c3ccc(C(F)(F)F)cc3)c3ccccc3c2)c1 [Example 5, (R)-N-(1-(3-Methoxyphenyl)ethyl)-3-(4-(4-(trifluoromethyl)phenyl)naphthalen-2-yl)propan-1-amine hydrochloride] | 20 to 50 |
| CC(N[C@H](C)c1cccc(Cl)c1)c1cc(-c2ccc(F)cc2)c2ccccc2c1 (stereo partly drawn) [Example 16, (1R)-1-(3-Chlorophenyl)-N-(1-(4-(4-fluorophenyl)naphthalen-2-yl)ethyl)ethanamine hydrochloride] | < 20 |
| COc1cccc([C@@H](C)NC(C)c2cc(-c3cc(F)cc(OC(C)(C)C(=O)O)c3)c3ccccc3c2)c1 (stereo partly drawn) [Example 151, 2-(3-Fluoro-5-(3-(1-(((R)-1-(3-methoxyphenyl)ethyl)amino)ethyl)naphthalen-1-yl)phenoxy)-2-methylpropanoic acid hydrochloride] | 50 to 400 |
| CCOc1cccc([C@@H](C)NC(C)c2cc(-c3cc(F)cc(CCC(=O)O)c3)c3ccccc3c2)c1 (stereo partly drawn) [Example 158, 3-(3-(3-(1-(((R)-1-(3-Ethoxyphenyl)ethyl)amino)ethyl)naphthalen-1-yl)-5-fluorophenyl) propanoic acid hydrochloride] | < 20 |
| COc1cccc([C@@H](C)NCc2cc(-c3ccc(Cl)c(C(=O)O)c3)c3ccccc3c2)c1 [Example 99, (R)-2-Chloro-5-(3-(((1-(3-methoxyphenyl)ethyl)amino)methyl)naphthalen-1-yl)benzoic acid hydrochloride] | 20 to 50 |
| COc1cccc([C@@H](C)NC(C)c2cc(-c3ccc(C(F)(F)F)c(CCC(=O)O)c3)c3ccccc3c2)c1 (stereo partly drawn) [Example 145, 3-(5-(3-(1-(((R)-1-(3-Methoxyphenyl)ethyl)amino)ethyl)naphthalen-1-yl)-2-(trifluoromethyl)phenyl)propanoic acid hydrochloride] | 50 to 400 |
| CC(N[C@H](C)c1cccc(Cl)c1)c1cc(-c2ccc(S(C)(=O)=O)cc2)c2ccccc2c1 (stereo partly drawn) [Example 159, (1R)-1-(3-Chlorophenyl)-N-(1-(4-(4-(methylsulfonyl)phenyl)naphthalen-2-yl)ethyl)ethanamine hydrochloride] | 50 to 400 |
| COc1cccc([C@@H](C)NCc2cc(-c3cccc(C(=O)O)c3C)c3ccccc3c2)c1 [Example 101, (R)-3-(3-(((1-(3-Methoxyphenyl)ethyl)amino)methyl)naphthalen-1-yl)-2-methylbenzoic acid hydrochloride] | 50 to 400 |
| CC(N[C@H](C)c1cccc2ccccc12)c1cc(-c2ccc(C(F)(F)F)cc2)c2ccccc2c1 (single isomer, unassigned) [Example 9b, hydrochloride] | < 20 |
| COc1cccc([C@@H](C)NC(C)c2cc(-c3cc(F)cc(N4CCOCC4)c3)c3ccccc3c2)c1 (stereo partly drawn) [Example 161, 1-(4-(3-Fluoro-5-morpholinophenyl)naphthalen-2-yl)-N-((R)-1-(3-methoxyphenyl)ethyl)ethanamine hydrochloride] | < 20 |
| Cc1ccc(-c2cc(CN[C@H](C)c3cccc4ccccc34)cc3ccccc23)cc1C(=O)O [Example 89, (R)-2-Methyl-5-(3-(((1-(naphthalen-1-yl)ethyl)amino)methyl)naphthalen-1-yl) benzoic acid] | 20 to 50 |
| COc1cccc([C@@H](C)NC(C)c2cc(-c3ccc(C(=O)O)c(Cl)c3)c3ccccc3c2)c1 (stereo partly drawn) [Example 121, 2-Chloro-4-(3-(1-(((R)-1-(3-methoxyphenyl)ethyl)amino)ethyl)naphthalen-1-yl)benzoic acid hydrochloride] | 50 to 400 |
| COc1cccc([C@@H](C)NC(C)c2cc(-c3ccc(F)c(C(=O)O)c3)c3ccccc3c2)c1 (stereo partly drawn) [Example 123, 2-Fluoro-5-(3-(1-(((R)-1-(3-methoxyphenyl)ethyl)amino)ethyl)naphthalen-1-yl)benzoic acid hydrochloride] | < 20 |
| COc1cccc([C@@H](C)NCc2cc(-c3ccc(C)c(C(=O)O)c3C)c3ccccc3c2)c1 [Example 109, (R)-3-(3-(((1-(3-Methoxyphenyl)ethyl)amino)methyl)naphthalen-1-yl)-2,6-dimethylbenzoic acid hydrochloride] | 50 to 400 |
| COc1cccc([C@@H](C)NC(C)c2cc(-c3ccc(S(C)(=O)=O)cc3)c3ccccc3c2)c1 (stereo partly drawn) [Example 17, (1R)-1-(3-Methoxyphenyl)-N-(1-(4-(4-(methylsulfonyl)phenyl)naphthalen-2-yl)ethyl)ethanamine hydrochloride] | 50 to 400 |
| COc1cccc([C@@H](C)NC(C)c2cc(-c3ccc(C)c(C(=O)O)c3)c3ccccc3c2)c1 (single isomer, unassigned) [Example 114b, hydrochloride] | 20 to 50 |
| COc1cccc([C@@H](C)NC(C)c2cc(-c3ccc(OC(F)F)cc3)c3ccccc3c2)c1 (stereo partly drawn) [Example 21, 1-(4-(4-(Difluoromethoxy)phenyl)naphthalen-2-yl)-N-((R)-1-(3-methoxyphenyl)ethyl)ethanamine hydrochloride] | < 20 |
